For 14 compounds, EC50 results are on record in US20250129069A1, “TRIAZOLO WRN INHIBITORS” (Nimbus Wadjet, Inc., priority 2023, published 2025).

The test system of the experiment is p21 induction in HCT 116 cells. The experiment can be described thus: p21 induction in cells (In-Cell Western, p21/GAPDH ratio). Type of experiment: cell-based. To be noted: 24 h compound incubation, read-out: p21_EC50. Here is the method:
The colon carcinoma cell line HCT 116 was obtained from ATCC and cultured in growth medium consisting of Mccoy's 5A Medium (Gibco 16600108) supplemented with 10% FBS (Transgene FS201-02) and 100 units/mL penicillin-streptomycin (Gibco 15140122) and maintained at 37° C. under 5% CO2. On the day of seeding, 2,000 cells in 30 μL of culture media were plated per well to Poly-D-Lysine 384 Well Black Clear Plates (Biocoat 356663) and incubated overnight at 37° C. under 5% CO2. The following day, compounds were serially diluted in DMSO for a total of 11 test concentrations. The typical starting concentration of compounds was 10 μM with 2-fold dilutions. Next, 150 nL of diluted compound was added in duplicate to the assay plate, using an Echo 655 (Labcyte). The plate was centrifuged at 500 RPM for 1 min and then incubated at 37° C. under 5% CO2 for 24 h. After 24 h, medium was removed, and cells were fixed by adding 40 μL of 4% paraformaldehyde solution to each well and incubated for 20 min at room temperature. The plate was then washed 4 times with 100 μL per well of wash buffer (PBS with 0.1% Tween-20) using a microplate washer. Next, 30 μL of ice-cold methanol was added to each well and the plate was incubated at −20° C. for 10 min. The plate was washed 4 times with 100 μL per well of wash buffer by a microplate washer, then 30 μL per well of blocking buffer ((Intercept PBS blocking buffer (LI-COR 927-70001) with 0.05% Tween-20)) was added and the plate was incubated at room temperature with shaking for 2 h. Next, to each test well, 20 μL of primary antibody solution (p21 Wafl/CIP (12D1) RabbitmAb (Cell Signaling Technologies 2947) diluted 1:1000 and GAPDH (D4C6R) Mouse mAb (Cell Signaling Technologies 97166) diluted 1:2000 in blocking buffer) was added and the plate was placed at 4° C., overnight. The following day, the plate was washed 5 times with 100 μL per well of wash buffer using a microplate washer for 5 min. 20 μL per well of secondary antibody (IRDye 680CW Goat anti-Mouse IgG (H+L) (LI-COR 926-68070) diluted 1:2000 in Blocking Buffer and IRDye 800CW Goat anti-Rabbit IgG (H+L) (LI-COR 926-32211) diluted 1:2000 in Blocking Buffer) was then added and the plate was stored for 2 h in the dark at room temperature with shaking. The plate was then washed 4 times with 100 μL per well of wash buffer again using a microplate washer. Finally, the p21 signal and the GAPDH signal were quantified using a LI-COR Odyssey CLx Imager machine reading at 800 nm and 700 nm, respectively. Each plate contained DMSO control (low control) and an internal reference WRN inhibitor (high control) respectively. For quantitation, the 800 nm/700 nm ratio was calculated for each well to give fold p21 induction and then percent activation for each compound well was calculated as follows (100×(ratio cpd well-ratio low control)/(ratio high control−ratio low control). EC50 values for each compound was generated after non-linear regression curve fitting using commercially available software.

Like-named read-outs stand apart in the source and are kept apart here.

`CCc1c(N2CCN(C(=O)c3ncnc(C)c3O)[C@H]3CC[C@@H]32)c(=O)c2nn([C@@H]3CC3(F)F)nc2n1CC(=O)Nc1ccc(C(F)(F)F)cc1Cl` (single isomer, unassigned) [Compound I-216]: the EC50 was not above 500 nM. With `CCc1c(N2CCN(C(=O)c3ncnc(C)c3O)[C@H]3CCC[C@@H]32)c(=O)c2nn(-c3ccnc(OC)c3)nc2n1CC(=O)NC12CC(C3CC3)(C1)C2` [Compound I-33, 2-{6-[(4aS,7aS)-4-(5-hydroxy-6-methylpyrimidine-4-carbonyl)-octahydro-1H-cyclopenta[b]pyrazin-1-yl]-5-ethyl-2-(2-methoxypyridin-4-yl)-7-oxo-2H,4H,7H-[1,2,3]triazolo[4,5-b]pyridin-4-yl}-N-{3-cyclopropylbicyclo[1.1.1]pentan-1-yl}acetamide], for the setting “Homo sapiens”, the EC50 was not above 500 nM.

Turning to `CCc1c(N2CCN(C(=O)c3ncnc(C)c3O)CC2)c(=O)c2nn(C3=CCOCC3)nc2n1CC(=O)NC12CC(C(C)C)(C1)C2` [Compound I-38, 2-[2-(3,6-dihydro-2H-pyran-4-yl)-5-ethyl-6-[4-(5-hydroxy-6-methylpyrimidine-4-carbonyl)piperazin-1-yl]-7-oxo-2H,4H,7H-[1,2,3]triazolo[4,5-b]pyridin-4-yl]-N-[3-(propan-2-yl)bicyclo[1.1.1]pentan-1-yl]acetamide], the EC50 (Homo sapiens) was 500 to 2000 nM.

Regarding `CCc1c(N2CCN(C(=O)c3ncnc(C)c3O)[C@H]3CCC[C@@H]32)c(=O)c2nn(C3=CCOCC3)nc2n1CC(=O)NC12CC(C3CC3)(C1)C2` [Compound I-39, 2-{6-[(4aS,7aS)-4-(5-hydroxy-6-methylpyrimidine-4-carbonyl)-octahydro-1H-cyclopenta[b]pyrazin-1-yl]-2-(3,6-dihydro-2H-pyran-4-yl)-5-ethyl-7-oxo-2H,4H,7H-[1,2,3]triazolo[4,5-b]pyridin-4-yl}-N-{3-cyclopropylbicyclo[1.1.1]pentan-1-yl}acetamide], the EC50 (Homo sapiens) is not above 500 nM. Same read-out and setting: the value for `CCc1c(N2CCN(C(=O)c3ncnc(C)c3O)[C@H]3CC[C@@H]32)c(=O)c2nn(-c3ccnc(OC)c3)nc2n1CC(=O)Nc1ccc(C(F)(F)F)cc1Cl` [Compound I-55, N-[2-chloro-4-(trifluoromethyl)phenyl]-2-{5-ethyl-6-[(1S,6S)-5-(5-hydroxy-6-methylpyrimidine-4-carbonyl)-2,5-diazabicyclo[4.2.0]octan-2-yl]-2-(2-methoxypyridin-4-yl)-7-oxo-2H,4H,7H-[1,2,3]triazolo[4,5-b]pyridin-4-yl}acetamide] was not above 500 nM.

As to `CCc1c(N2CCN(C(=O)c3ncnc(C)c3O)[C@H]3CC[C@@H]32)c(=O)c2nn(-c3ccn(C4CC4)n3)nc2n1CC(=O)NC12CC(C(C)C)(C1)C2` [Compound I-60, 2-[2-(1-cyclopropyl-1H-pyrazol-3-yl)-5-ethyl-6-[(1S,6S)-5-(5-hydroxy-6-methylpyrimidine-4-carbonyl)-2,5-diazabicyclo[4.2.0]octan-2-yl]-7-oxo-2H,4H,7H-[1,2,3]triazolo[4,5-b]pyridin-4-yl]-N-[3-(propan-2-yl)bicyclo[1.1.1]pentan-1-yl]acetamide], under “Homo sapiens”, the EC50 was not above 500 nM. In the case of `CCc1c(N2CCN(C(=O)c3ncnc(C)c3O)[C@H]3CC[C@@H]32)c(=O)c2nn(-c3ccnc(OC)c3)nc2n1CC(=O)NC12CC(C3CCC3)(C1)C2` [Compound I-62, N-{3-cyclobutylbicyclo[1.1.1]pentan-1-yl}-2-{5-ethyl-6-[(1S,6S)-5-(5-hydroxy-6-methylpyrimidine-4-carbonyl)-2,5-diazabicyclo[4.2.0]octan-2-yl]-2-(2-methoxypyridin-4-yl)-7-oxo-2H,4H,7H-[1,2,3]triazolo[4,5-b]pyridin-4-yl}acetamide], the EC50 was not above 500 nM.

Regarding `CCc1c(N2CCN(C(=O)c3ncnc(C)c3O)[C@H]3CC[C@@H]32)c(=O)c2nn(C3=CCOC(C)C3)nc2n1CC(=O)NC12CC(C3CC3)(C1)C2` (stereo partly drawn) [Compound I-172, N-{3-cyclopropylbicyclo[1.1.1]pentan-1-yl}-2-{5-ethyl-6-[(1S,6S)-5-(5-hydroxy-6-methylpyrimidine-4-carbonyl)-2,5-diazabicyclo[4.2.0]octan-2-yl]-2-(2-methyl-3,6-dihydro-2H-pyran-4-yl)-7-oxo-2H,4H,7H-[1,2,3]triazolo[4,5-b]pyridin-4-yl}acetamide], the EC50 (Homo sapiens) is not above 500 nM. For the compound `CCc1c(N2CCN(C(=O)c3ncnc(C)c3O)[C@H]3CC[C@@H]32)c(=O)c2nn(C3=CCC(OC)CC3)nc2n1CC(=O)NC12CC(C3CC3)(C1)C2` (stereo partly drawn) [Compound I-173, N-{3-cyclopropylbicyclo[1.1.1]pentan-1-yl}-2-{5-ethyl-6-[(1S,6S)-5-(5-hydroxy-6-methylpyrimidine-4-carbonyl)-2,5-diazabicyclo[4.2.0]octan-2-yl]-2-(4-methoxycyclohex-1-en-1-yl)-7-oxo-2H,4H,7H-[1,2,3]triazolo[4,5-b]pyridin-4-yl}acetamide], where the note is “Homo sapiens”, the EC50 was not above 500 nM. As for `CCc1c(N2CCN(C(=O)c3ncnc(C)c3O)[C@H]3CC[C@@H]32)c(=O)c2nn(-c3ccnc(C(F)(F)F)c3)nc2n1CC(=O)NC12CC(C3CC3)(C1)C2` [Compound I-176, N-{3-cyclopropylbicyclo[1.1.1]pentan-1-yl}-2-{5-ethyl-6-[(1S,6S)-5-(5-hydroxy-6-methylpyrimidine-4-carbonyl)-2,5-diazabicyclo[4.2.0]octan-2-yl]-7-oxo-2-[2-(trifluoromethyl)pyridin-4-yl]-2H,4H,7H-[1,2,3]triazolo[4,5-b]pyridin-4-yl}acetamide], the EC50 (Homo sapiens) is not above 500 nM. Same read-out and setting: the value for `CCc1c(N2CCN(C(=O)c3ncnc(C)c3O)[C@H]3CC[C@@H]32)c(=O)c2nn(-c3ccnc(C(F)F)c3)nc2n1CC(=O)NC12CC(C3CC3)(C1)C2` [Compound I-182, N-{3-cyclopropylbicyclo[1.1.1]pentan-1-yl}-2-{2-[2-(difluoromethyl)pyridin-4-yl]-5-ethyl-6-[(1S,6S)-5-(5-hydroxy-6-methylpyrimidine-4-carbonyl)-2,5-diazabicyclo[4.2.0]octan-2-yl]-7-oxo-2H,4H,7H-[1,2,3]triazolo[4,5-b]pyridin-4-yl}acetamide] was not above 500 nM; that for `CCc1c(N2CCN(C(=O)c3c(F)cnc(OC)c3O)[C@H]3CC[C@@H]32)c(=O)c2nn(C3=CCOCC3)nc2n1CC(=O)NC12CC(C3CC3)(C1)C2` [Compound I-183, N-{3-cyclopropylbicyclo[1.1.1]pentan-1-yl}-2-[2-(3,6-dihydro-2H-pyran-4-yl)-5-ethyl-6-[(1S,6S)-5-(5-fluoro-3-hydroxy-2-methoxypyridine-4-carbonyl)-2,5-diazabicyclo[4.2.0]octan-2-yl]-7-oxo-2H,4H,7H-[1,2,3]triazolo[4,5-b]pyridin-4-yl]acetamide] was not above 500 nM.

Take `CCc1c(N2CCN(C(=O)c3ncnc(C)c3O)[C@H]3CC[C@@H]32)c(=O)c2nn(C3=CCN(CC(F)F)CC3)nc2n1CC(=O)NC12CC(C3CC3)(C1)C2` [Compound I-185, N-{3-cyclopropylbicyclo[1.1.1]pentan-1-yl}-2-{2-[1-(2,2-difluoroethyl)-1,2,3,6-tetrahydropyridin-4-yl]-5-ethyl-6-[(1S,6S)-5-(5-hydroxy-6-methylpyrimidine-4-carbonyl)-2,5-diazabicyclo[4.2.0]octan-2-yl]-7-oxo-2H,4H,7H-[1,2,3]triazolo[4,5-b]pyridin-4-yl}acetamide]: the EC50 (Homo sapiens) was not above 500 nM. The same measure, in the same setting: the value for `CCc1c(N2CCN(C(=O)c3ncnc(C)c3O)[C@H]3CC[C@@H]32)c(=O)c2nn(-c3ccnc(OC)c3)cc2n1CC(=O)NC12CC(C3CC3)(C1)C2` [Compound I-188, N-{3-cyclopropylbicyclo[1.1.1]pentan-1-yl}-2-{5-ethyl-6-[(1S,6S)-5-(5-hydroxy-6-methylpyrimidine-4-carbonyl)-2,5-diazabicyclo[4.2.0]octan-2-yl]-2-(2-methoxypyridin-4-yl)-7-oxo-2H,4H,7H-pyrazolo[4,3-b]pyridin-4-yl}acetamide] was 500 to 2000 nM.
